# Data from patent US4317768A, “Dihydropyridine derivatives as stabilizers for vinyl chloride polymers” (priority 1977, dated 1982).
# Legend:
# [1] = Thermostability, rigid co-polymer (e), ventilated oven 210° C.; conditions: 0.3 part
# Experimental: The study of the static thermostability of vinyl co-polymers was carried out according to the GARDNER method described above and, also in a more detailed manner in British Patent No. 1,489,685.
# (e) Rigid co-polymer vinyl chloride-vinylidene chloride
# The following compound was prepared:
# The sheets were heated in a ventilated oven at 210° C. and the following results were obtained: […]
# [2] = Antioxidant power on a polyvinyl chloride resin, GARDNER method, 185° C.
# Experimental: By direct comparison, on a polyvinyl chloride resin, of the antioxidant power of Compound 1 of the invention and that of an antioxidant known as one of the most valuable and frequently used in polyvinyl chloride, namely 2,6-diterbutyl-4-methyl-phenol.
# The antioxidant power of Compound 1 was compared to that of 2,6-diterbutyl-4-methyl-phenol (Compound 2) by using the following resin:
# The study was carried out according to the GARDNER method, the samples being removed from an oven at 185° C. every 10 minutes over a period of 80 minutes.
# The signs + and - have the same meanings as in the previous table and > 2 means that the coloration lies between 2 and 2+.
# [3] = as above; remark: listed apart in the source
# [4] = Comparison with stabilizer G1, rigid co-polymer (12.5 to 13.5% of acetate), 0.5 part, 185° C.
# Text: Another comparison was made with the following rigid co-polymer: […]
# [5] = Photostabilizing power, tetrahydrofuran solution of plates exposed to the sun, French Pharmacopeia
# Experimental: The photostabilizing power of the compounds of the invention was studied by exposing to the sun polyvinyl chloride plates which had been stabilized either by a dihydropyridine of the invention or by 2-phenyl-indole, or again by 2-(3'-methoxy-4'-hydroxy)-indole. This last product is an extremely valuable thermostabilizer for thermoplastic resins and is described in British Pat. No. 1,489,685.
# The resin given hereunder was prepared by mixing on cylinders at 160° C.:
# The plates of stabilized polyvinyl chloride, together with a plate which had not been stabilized, were stood in the sun under the same conditions and at the same time. Their colour was measured after 6 hours and 12 hours of exposure.
# The coloration of the plates was determined according to two methods:
# On a solution of these plates in tetrahydrofuran, the coloration of th solution being measured according to the French Pharmacopeia (IXth edition, II-338).
# [6] = Comparison with 2-phenyl-indole, vinyl chloride-vinyl acetate co-polymer, 185° C.; conditions: 0.3 part
# Experimental: (c) Comparison with 2-phenyl-indole
# A comparative test was made using the following compound:
# (§1) The sheets were heated in a ventilated oven at 185° C. and the following results were obtained: […]
# [7] = Comparison with 1,4-butanediol-β-aminocrotonate and methyl-β-aminocrotonate, rigid co-polymer, 185° C.; conditions: 0.5 part
# Experimental: (a) Comparison with 1,4-butanediol-β-aminocrotonate and with methyl-β-aminocrotonate.
# The following rigid co-polymer was prepared:
# as §1
# [8] = Static thermostability (GARDNER method), rigid PVC sheets, 185° C., equimolecular quantities; conditions: 1.55×10^-3 mol
# Summary of the method: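 Stabilizer at 1.55×10^-3 mol (equimolar with 2-phenyl-indole) mixed with PVC and other usual ingredients, calendered at 160° C. into rigid sheets. Sheets oven-aged at 185° C., sampled every 6 min to 24 min, then every 3 min to 42 min or carbonization. Coloration scored on the GARDNER scale.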
smiles,measurement,setting,value
"C=CCOC(=O)C1=C(C)NC(C)=C(C(=O)OCC=C)C1 [Compound 1, 2,6-Dimethyl-3,5-dicarboallyloxy-1,4-dihydropyridine]","coloration, GARDNER scale",[1]; 0 min,1
same,"coloration, GARDNER scale",[1]; 3 min,1
same,"coloration, GARDNER scale",[1]; 6 min,2
same,"coloration, GARDNER scale",[1]; 9 min,4
same,"coloration, GARDNER scale",[1]; 12 min,10
same,"coloration, GARDNER scale","[2]; 0.05 part, 0 min",1
same,"coloration, GARDNER scale","[2]; 0.05 part, 10 min",1
same,"coloration, GARDNER scale","[2]; 0.05 part, 60 min",7
same,"coloration, GARDNER scale","[2]; 0.05 part, 70 min",8
same,"coloration, GARDNER scale","[2]; 0.1 part, 0 min",1
same,"coloration, GARDNER scale","[2]; 0.1 part, 10 min",1
same,"coloration, GARDNER scale","[2]; 0.1 part, 30 min",< 2
same,"coloration, GARDNER scale","[2]; 0.1 part, 60 min",7
same,"coloration, GARDNER scale","[2]; 0.1 part, 70 min",7
same,"coloration, GARDNER scale","[2]; 0.2 part, 0 min",1
same,"coloration, GARDNER scale","[2]; 0.2 part, 10 min",1
same,"coloration, GARDNER scale","[2]; 0.2 part, 20 min",1
same,"coloration, GARDNER scale","[2]; 0.2 part, 40 min",2
same,"coloration, GARDNER scale","[2]; 0.2 part, 50 min",3
same,"coloration, GARDNER scale","[2]; 0.2 part, 60 min",5
same,"coloration, GARDNER scale","[2]; 0.2 part, 70 min",> 6
same,"coloration, GARDNER scale","[2]; 0.3 part, 0 min",1
same,"coloration, GARDNER scale","[2]; 0.3 part, 10 min",1
same,"coloration, GARDNER scale","[2]; 0.3 part, 20 min",1
same,"coloration, GARDNER scale","[2]; 0.3 part, 30 min",1
same,"coloration, GARDNER scale","[2]; 0.3 part, 40 min",2
same,"coloration, GARDNER scale","[2]; 0.3 part, 50 min",> 2
same,"coloration, GARDNER scale","[2]; 0.3 part, 60 min",8
same,"coloration, GARDNER scale","[2]; 0.3 part, 70 min",8
same,"coloration, GARDNER scale","[2]; 0.4 part, 0 min",1
same,"coloration, GARDNER scale","[2]; 0.4 part, 10 min",1
same,"coloration, GARDNER scale","[2]; 0.4 part, 20 min",1
same,"coloration, GARDNER scale","[2]; 0.4 part, 30 min",1
same,"coloration, GARDNER scale","[2]; 0.4 part, 60 min",4
same,"coloration, GARDNER scale","[2]; 0.4 part, 70 min",8
same,"coloration, GARDNER scale","[2]; 0.5 part, 0 min",1
same,"coloration, GARDNER scale","[2]; 0.5 part, 10 min",1
same,"coloration, GARDNER scale","[2]; 0.5 part, 20 min",1
same,"coloration, GARDNER scale","[2]; 0.5 part, 30 min",> 1
same,"coloration, GARDNER scale","[2]; 1.0 part, 0 min",1
same,"coloration, GARDNER scale","[2]; 1.0 part, 10 min",1
same,"coloration, GARDNER scale","[2]; 1.0 part, 20 min",1
same,"coloration, GARDNER scale","[2]; 1.0 part, 30 min",1
same,"coloration, GARDNER scale","[2]; 1.0 part, 50 min",4
same,"coloration, GARDNER scale","[2]; 1.0 part, 60 min",8
same,"antioxidant power, Compound 1 vs Compound Z, in words",[3],superior to Compound Z at every concentration
same,"coloration, GARDNER scale",[4]; 0 min,1
same,"coloration, GARDNER scale",[4]; 2 min,1
same,"coloration, GARDNER scale",[4]; 4 min,2
same,"coloration, GARDNER scale",[4]; 6 min,3
same,"coloration, GARDNER scale",[4]; 10 min,12
same,"coloration, GARDNER scale",[4]; 12 min,18
same,"coloration, GARDNER scale","[4]; column without printed time, between 6 and 10 min",7
"CC1=C(C(=O)OCc2ccccc2)CC(C(=O)OCc2ccccc2)=C(C)N1 [Compound 21, 2,6-Dimethyl-3,5-dicarbobenzyloxy-1,4-dihydropyridine]",Coloration of the plates FRENCH PHARMACOPEIA,[5]; exposure to sun 0,JV6
same,Coloration of the plates FRENCH PHARMACOPEIA,[5]; exposure to sun 6h,JV6
same,Coloration of the plates FRENCH PHARMACOPEIA,[5]; exposure to sun 12h,JV5
same,"coloration, GARDNER scale",[6]; 0 min,1
same,"coloration, GARDNER scale",[6]; 2 min,1
same,"coloration, GARDNER scale",[6]; 4 min,2
same,"coloration, GARDNER scale",[6]; 6 min,3
same,"coloration, GARDNER scale",[6]; 8 min,7
same,"coloration, GARDNER scale",[6]; 10 min,10
same,"coloration, GARDNER scale",[6]; 12 min,12
same,"coloration, GARDNER scale",[6]; 14 min,16
same,"coloration, GARDNER scale",[7]; 0 min,1
same,"coloration, GARDNER scale",[7]; 2 min,1
same,"coloration, GARDNER scale",[7]; 4 min,4
same,"coloration, GARDNER scale",[7]; 6 min,6
same,"coloration, GARDNER scale",[7]; 8 min,11
same,"coloration, GARDNER scale",[7]; 10 min,13
same,"coloration, GARDNER scale",[7]; 12 min,17
same,"coloration, GARDNER scale",[8]; 0 min,1
same,"coloration, GARDNER scale",[8]; 6 min,1
same,"coloration, GARDNER scale",[8]; 12 min,1
same,"coloration, GARDNER scale",[8]; 18 min,4
same,"coloration, GARDNER scale",[8]; 24 min,6
same,"coloration, GARDNER scale",[8]; 27 min,8
same,"coloration, GARDNER scale",[8]; 30 min,11
same,"coloration, GARDNER scale",[8]; 33 min,15
same,"coloration, GARDNER scale",[8]; 36 min,Burnt
